# Assay results as given in ChEMBL document CHEMBL1201862, “PubChem BioAssay data set” (2004).
# Active and inactive are the calls of the source.
# Columns and labels:
# Cytochrome P450 3A4 = Cytochrome P450 3A4 (Homo sapiens, UniProt P08684);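 also: CYP3A4 tested as one member of a cytochrome P450 panel screen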
# Cytochrome P450 2D6 = Cytochrome P450 2D6 (Homo sapiens, UniProt P10635);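 also: CYP2D6 member of a cytochrome P450 panel assay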
# Cytochrome P450 2C9 = Cytochrome P450 2C9 (Homo sapiens, UniProt P11712)
# Protein RecA = target: T1, Protein RecA (Mycobacterium tuberculosis, UniProt P9WHJ3); test: Fluorescence Cell-Free Homogeneous Dose Retest to Identify Inhibitors of RecA-Intein Splicing Activity. [Related pubchem assays (depositor defined):AID2097, AID2223, AID489010, AID492950]; format: functional
# T1 sequence (P9WHJ3 whole entry): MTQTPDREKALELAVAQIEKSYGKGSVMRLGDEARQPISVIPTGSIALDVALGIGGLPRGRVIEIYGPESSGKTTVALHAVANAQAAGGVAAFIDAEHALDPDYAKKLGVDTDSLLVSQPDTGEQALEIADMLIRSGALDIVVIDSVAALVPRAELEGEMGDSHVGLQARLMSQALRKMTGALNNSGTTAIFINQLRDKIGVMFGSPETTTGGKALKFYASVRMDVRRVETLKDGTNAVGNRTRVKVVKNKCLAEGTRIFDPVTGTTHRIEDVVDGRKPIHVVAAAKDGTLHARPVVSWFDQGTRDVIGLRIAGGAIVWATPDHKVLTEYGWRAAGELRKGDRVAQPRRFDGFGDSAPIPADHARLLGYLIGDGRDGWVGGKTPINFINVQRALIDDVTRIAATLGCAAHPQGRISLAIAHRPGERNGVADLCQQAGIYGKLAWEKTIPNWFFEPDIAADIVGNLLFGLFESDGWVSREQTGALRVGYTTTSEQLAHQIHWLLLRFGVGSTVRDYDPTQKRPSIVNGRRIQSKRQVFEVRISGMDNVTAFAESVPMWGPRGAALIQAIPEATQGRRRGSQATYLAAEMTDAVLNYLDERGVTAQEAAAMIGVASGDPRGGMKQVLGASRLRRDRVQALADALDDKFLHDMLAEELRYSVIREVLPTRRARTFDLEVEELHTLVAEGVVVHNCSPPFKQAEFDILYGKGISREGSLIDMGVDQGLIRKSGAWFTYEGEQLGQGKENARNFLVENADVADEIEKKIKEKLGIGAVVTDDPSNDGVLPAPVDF
# [1] = target: T2, Replicative DNA helicase DnaB (Mycobacterium tuberculosis, UniProt P9WMR3); test: DnaB intein splicing inhibitors, dose response, biochemical, cell-free fluorescence (AID 449749); format: functional
# T2 sequence (P9WMR3 whole entry): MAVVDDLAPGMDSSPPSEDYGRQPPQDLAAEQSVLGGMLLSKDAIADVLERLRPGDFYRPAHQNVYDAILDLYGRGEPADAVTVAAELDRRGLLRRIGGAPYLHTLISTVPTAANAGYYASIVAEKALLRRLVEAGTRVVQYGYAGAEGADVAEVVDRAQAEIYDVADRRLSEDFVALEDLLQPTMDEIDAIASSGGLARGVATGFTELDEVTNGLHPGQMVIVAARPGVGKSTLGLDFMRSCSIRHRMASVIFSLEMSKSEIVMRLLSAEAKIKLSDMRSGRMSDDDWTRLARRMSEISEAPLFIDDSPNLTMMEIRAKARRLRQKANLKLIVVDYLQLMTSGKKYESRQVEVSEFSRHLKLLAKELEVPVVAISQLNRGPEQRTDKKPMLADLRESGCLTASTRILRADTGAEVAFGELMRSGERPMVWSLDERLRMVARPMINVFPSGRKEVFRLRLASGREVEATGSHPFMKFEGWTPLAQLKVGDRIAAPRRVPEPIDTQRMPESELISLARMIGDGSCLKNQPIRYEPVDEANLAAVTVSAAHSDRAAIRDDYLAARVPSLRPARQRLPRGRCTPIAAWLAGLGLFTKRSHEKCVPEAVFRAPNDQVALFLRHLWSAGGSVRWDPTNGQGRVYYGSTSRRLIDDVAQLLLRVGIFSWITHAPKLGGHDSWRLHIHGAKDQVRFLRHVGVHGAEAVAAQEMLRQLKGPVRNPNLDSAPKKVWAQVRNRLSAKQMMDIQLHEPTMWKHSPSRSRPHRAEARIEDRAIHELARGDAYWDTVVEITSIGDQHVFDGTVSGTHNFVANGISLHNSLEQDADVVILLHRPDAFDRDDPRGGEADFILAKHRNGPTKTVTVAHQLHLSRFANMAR
# Genome polyprotein = Genome polyprotein (dengue virus type 2, UniProt P29990); test: Dengue-2 NS5 methyltransferase inhibitors, primary screen, biochemical, confirmation dose response (AID 588689); format: functional
# [2] = NIH-3T3 fibroblast cytotoxicity, dose response, cytotoxicity control, cell-based, fluorescence, Alamar Blue, secondary assay (AID 2327); format: functional;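 also: NIH-3T3 mouse fibroblasts cultured with fluconazole at 8 µg/mL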
# [3] = C. albicans growth with fluconazole, confirmation, fluorescence, retest (AID 2467); format: functional, cell-based
# [4] = target: FAD-linked sulfhydryl oxidase ALR (Homo sapiens, UniProt P55789); test: inhibitors of human ALR sulfhydryl oxidase, dose response, biochemical, H2O2 detection, luminescence, cherry-pick (AID 493248)
# Cytochrome P450 2C19 = Cytochrome P450 2C19 (Homo sapiens, UniProt P33261); test: Cytochrome panel assay with activity outcomes. Panel member name: p450-cyp2c19 Compounds with AC50 equal or less than 10 uM are considered active; format: functional; conditions: read-out: AC50
# INS1 = test: beta cell apoptosis inhibitors, cytokine rescue, dose response, luminescence, retest (AID 449756); format: functional, cell-based; conditions: Rattus norvegicus;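 also: cell death triggered by IL-1 beta plus TNF-alpha plus IFN-gamma mixture; protective hits raise ATP signal compared with cytokine alone wells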
# [5] = target: T3, RNA-binding protein pos-1 (Caenorhabditis elegans, UniProt G5EF15); test: inhibitors of POS-1/mex-3 RNA binding, dose response, biochemical, fluorescence polarization (AID 1964);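 also: purified POS-1 fused to maltose binding protein made in E. coli; potency of compounds blocking POS-1 binding to fluorescent RNA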
# T3 sequence (G5EF15 whole entry): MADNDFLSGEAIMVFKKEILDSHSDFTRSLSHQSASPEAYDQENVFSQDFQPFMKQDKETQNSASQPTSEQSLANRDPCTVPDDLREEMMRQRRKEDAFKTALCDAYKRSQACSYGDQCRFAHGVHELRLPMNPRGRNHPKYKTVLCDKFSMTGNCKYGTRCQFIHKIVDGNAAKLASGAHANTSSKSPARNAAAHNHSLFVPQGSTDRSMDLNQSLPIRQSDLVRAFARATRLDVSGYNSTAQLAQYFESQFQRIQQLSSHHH
# [6] = target: T4, Zinc finger protein mex-5 (Caenorhabditis elegans, UniProt Q9XUB2); test: MEX-5/TCR-2 RNA interaction inhibitors, dose response, biochemical, C. elegans, fluorescence polarization (AID 1960)
# T4 sequence (Q9XUB2 whole entry): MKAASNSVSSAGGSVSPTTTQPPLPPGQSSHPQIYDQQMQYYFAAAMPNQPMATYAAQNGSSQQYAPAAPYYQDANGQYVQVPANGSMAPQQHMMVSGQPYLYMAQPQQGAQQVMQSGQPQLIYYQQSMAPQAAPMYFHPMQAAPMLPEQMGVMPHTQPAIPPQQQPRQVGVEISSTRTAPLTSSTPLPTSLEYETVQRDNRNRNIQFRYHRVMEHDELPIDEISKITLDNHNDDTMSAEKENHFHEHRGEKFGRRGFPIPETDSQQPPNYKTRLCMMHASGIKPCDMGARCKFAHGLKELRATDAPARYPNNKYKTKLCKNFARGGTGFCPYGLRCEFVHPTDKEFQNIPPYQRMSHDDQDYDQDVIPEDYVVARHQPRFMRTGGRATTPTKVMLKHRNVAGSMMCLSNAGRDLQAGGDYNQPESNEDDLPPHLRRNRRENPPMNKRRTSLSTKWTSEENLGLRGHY
# [7] = HEp-2 cell cytotoxicity, dose response, cytotoxicity control for RSV inhibitor project, HTS (AID 2410); format: functional; conditions: human respiratory syncytial virus
# Cytochrome P450 1A2 = target: T5, Cytochrome P450 1A2 (Homo sapiens, UniProt P05177);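 also: PubChem cytochrome P450 panel assay, CYP1A2 panel member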
# T5 sequence (P05177 whole entry): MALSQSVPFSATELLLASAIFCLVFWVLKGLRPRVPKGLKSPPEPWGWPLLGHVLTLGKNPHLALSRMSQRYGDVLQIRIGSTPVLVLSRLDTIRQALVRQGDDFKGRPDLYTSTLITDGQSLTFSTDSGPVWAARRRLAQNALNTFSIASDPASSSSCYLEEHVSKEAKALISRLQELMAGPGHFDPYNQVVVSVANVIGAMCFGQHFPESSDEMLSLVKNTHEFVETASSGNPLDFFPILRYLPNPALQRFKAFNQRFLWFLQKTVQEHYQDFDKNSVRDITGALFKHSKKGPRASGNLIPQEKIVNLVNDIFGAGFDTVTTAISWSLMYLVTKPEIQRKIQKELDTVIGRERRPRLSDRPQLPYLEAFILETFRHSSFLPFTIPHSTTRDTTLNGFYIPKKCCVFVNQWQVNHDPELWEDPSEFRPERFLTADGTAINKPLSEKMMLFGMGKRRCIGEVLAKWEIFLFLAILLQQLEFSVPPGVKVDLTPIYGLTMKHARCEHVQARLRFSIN
# Sequence of Genome polyprotein (P29990 2492-3391 limits assumed): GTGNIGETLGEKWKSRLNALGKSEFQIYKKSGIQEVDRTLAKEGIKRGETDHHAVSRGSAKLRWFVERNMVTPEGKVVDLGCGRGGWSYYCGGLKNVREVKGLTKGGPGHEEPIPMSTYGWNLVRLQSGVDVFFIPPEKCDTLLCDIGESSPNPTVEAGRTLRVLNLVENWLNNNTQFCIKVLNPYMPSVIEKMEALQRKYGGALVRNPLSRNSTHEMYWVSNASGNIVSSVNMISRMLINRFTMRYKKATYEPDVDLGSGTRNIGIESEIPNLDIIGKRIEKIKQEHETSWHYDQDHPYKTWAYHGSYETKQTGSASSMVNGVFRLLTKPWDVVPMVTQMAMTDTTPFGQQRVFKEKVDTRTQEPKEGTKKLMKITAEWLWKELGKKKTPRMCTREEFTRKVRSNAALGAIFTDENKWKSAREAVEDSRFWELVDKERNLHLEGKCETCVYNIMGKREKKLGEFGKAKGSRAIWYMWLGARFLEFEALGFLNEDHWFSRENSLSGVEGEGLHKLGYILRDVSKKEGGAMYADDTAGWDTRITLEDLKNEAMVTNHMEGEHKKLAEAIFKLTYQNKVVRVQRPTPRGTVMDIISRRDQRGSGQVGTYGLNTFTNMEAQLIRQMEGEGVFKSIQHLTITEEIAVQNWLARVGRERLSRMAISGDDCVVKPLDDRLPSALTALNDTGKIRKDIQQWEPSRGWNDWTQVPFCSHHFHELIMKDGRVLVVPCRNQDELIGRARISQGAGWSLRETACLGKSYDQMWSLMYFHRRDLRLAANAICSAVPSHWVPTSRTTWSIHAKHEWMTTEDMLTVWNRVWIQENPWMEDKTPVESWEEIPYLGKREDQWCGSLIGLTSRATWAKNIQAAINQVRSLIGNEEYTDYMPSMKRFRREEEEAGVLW
# Sequence of Cytochrome P450 3A4 (P08684 whole entry): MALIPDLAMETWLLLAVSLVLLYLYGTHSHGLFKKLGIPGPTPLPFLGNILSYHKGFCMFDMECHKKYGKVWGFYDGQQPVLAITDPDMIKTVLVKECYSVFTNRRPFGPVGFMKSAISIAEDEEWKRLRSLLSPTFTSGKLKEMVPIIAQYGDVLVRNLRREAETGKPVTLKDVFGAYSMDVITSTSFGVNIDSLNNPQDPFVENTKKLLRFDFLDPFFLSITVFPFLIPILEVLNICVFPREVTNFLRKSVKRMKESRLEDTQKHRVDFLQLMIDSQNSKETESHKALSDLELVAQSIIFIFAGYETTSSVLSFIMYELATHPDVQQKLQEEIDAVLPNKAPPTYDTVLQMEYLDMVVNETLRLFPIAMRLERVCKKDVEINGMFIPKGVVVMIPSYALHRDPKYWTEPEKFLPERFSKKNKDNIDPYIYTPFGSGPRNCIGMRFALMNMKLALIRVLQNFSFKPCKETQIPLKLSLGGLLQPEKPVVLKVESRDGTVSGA
# Sequence of Cytochrome P450 2D6 (P10635 whole entry): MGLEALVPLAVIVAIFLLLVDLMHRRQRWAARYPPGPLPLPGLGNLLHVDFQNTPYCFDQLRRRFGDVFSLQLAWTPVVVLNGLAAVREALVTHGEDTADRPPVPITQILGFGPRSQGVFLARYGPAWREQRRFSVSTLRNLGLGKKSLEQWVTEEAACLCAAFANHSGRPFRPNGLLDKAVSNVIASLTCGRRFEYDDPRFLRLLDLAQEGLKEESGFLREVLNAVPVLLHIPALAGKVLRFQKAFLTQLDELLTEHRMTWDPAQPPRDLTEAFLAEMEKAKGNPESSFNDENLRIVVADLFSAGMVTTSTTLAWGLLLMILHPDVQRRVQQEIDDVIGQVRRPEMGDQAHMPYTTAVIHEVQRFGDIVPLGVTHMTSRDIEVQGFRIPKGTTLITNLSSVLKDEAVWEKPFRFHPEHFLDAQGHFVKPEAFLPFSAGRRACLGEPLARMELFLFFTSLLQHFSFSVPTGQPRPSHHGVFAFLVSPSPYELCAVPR
# Sequence of Cytochrome P450 2C9 (P11712 whole entry): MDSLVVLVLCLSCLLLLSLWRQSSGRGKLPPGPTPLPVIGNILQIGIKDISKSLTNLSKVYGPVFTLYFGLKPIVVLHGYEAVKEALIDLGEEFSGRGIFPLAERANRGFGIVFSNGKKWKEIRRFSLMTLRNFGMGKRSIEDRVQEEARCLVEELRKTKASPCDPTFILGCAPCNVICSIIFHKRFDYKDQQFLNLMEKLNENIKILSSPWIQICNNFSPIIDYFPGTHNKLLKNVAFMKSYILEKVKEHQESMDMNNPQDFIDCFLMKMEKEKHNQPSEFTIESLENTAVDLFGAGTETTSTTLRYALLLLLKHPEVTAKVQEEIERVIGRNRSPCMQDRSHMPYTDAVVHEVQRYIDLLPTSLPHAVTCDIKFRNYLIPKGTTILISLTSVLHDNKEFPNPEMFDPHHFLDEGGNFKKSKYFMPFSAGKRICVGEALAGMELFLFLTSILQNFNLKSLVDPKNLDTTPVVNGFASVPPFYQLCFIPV
# Sequence of Cytochrome P450 2C19 (P33261 whole entry): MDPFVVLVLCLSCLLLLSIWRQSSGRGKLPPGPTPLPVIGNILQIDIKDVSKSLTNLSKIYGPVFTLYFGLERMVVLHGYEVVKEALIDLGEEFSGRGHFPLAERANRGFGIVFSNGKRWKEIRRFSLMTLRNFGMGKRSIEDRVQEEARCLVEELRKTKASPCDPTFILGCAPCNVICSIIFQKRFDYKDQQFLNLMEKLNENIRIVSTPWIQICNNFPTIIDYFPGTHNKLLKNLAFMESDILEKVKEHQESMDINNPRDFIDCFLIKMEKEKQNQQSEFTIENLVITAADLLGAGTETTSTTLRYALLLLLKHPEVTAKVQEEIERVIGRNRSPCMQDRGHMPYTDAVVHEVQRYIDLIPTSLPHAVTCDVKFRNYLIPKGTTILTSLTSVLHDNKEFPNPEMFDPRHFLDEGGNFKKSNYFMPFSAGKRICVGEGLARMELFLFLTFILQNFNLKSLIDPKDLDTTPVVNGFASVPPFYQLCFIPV
# Sequence of FAD-linked sulfhydryl oxidase ALR (P55789 whole entry): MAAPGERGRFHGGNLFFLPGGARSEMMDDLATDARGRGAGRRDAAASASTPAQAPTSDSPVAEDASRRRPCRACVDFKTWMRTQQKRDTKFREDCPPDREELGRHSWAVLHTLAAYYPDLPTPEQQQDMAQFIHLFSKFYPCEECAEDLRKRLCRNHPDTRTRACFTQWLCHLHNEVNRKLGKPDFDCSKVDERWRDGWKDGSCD
compound,measurement,setting,value
CCc1ccc(N(C(=O)c2ccoc2C)C(C(=O)NC2CCCC2)c2ccc(OC)cc2)cc1 (configuration not stated),AC50,Cytochrome P450 3A4,1.26 µM (inconclusive)
same,AC50,Cytochrome P450 2D6,15.8 µM (inconclusive)
Cc1cc(C2C(C#N)=C(N)Oc3[nH]nc(C)c32)c(C)s1 (configuration not stated),AC50,Cytochrome P450 2C9,10 µM (inconclusive)
same,EC50,Protein RecA,3.32 µM (active)
same,AC50,Cytochrome P450 3A4,7.08 µM (inconclusive)
same,AC50,[1],10.9 µM (active)
COc1ccccc1CN1CCCC2(CCN(C(=O)c3c(C)noc3C)CC2)C1,AC50,Cytochrome P450 3A4,10 µM (inconclusive)
same,AC50,Cytochrome P450 2D6,12.6 µM (inconclusive)
O=C(c1ccco1)N1CCC[C@@]2(CCN(c3ccccc3)C2)C1,AC50,Cytochrome P450 2D6,20 µM (inconclusive)
O=C1/C(=C/c2cccc(F)c2)SC(=S)N1NS(=O)(=O)c1ccccc1,IC50,Genome polyprotein,30.6 µM (active)
CN1CCN(c2nc(-c3ccccc3C(F)(F)F)nc3ccccc23)CC1,AC50,Cytochrome P450 3A4,20 µM (inconclusive)
same,AC50,Cytochrome P450 2D6,39.8 µM (inconclusive)
O=C(NNc1ccc(Cl)cc1)C1CCC1,EC50,[2],48.3 µM (active)
same,EC50,[3],> 38 µM (not active)
O=S(=O)(O)c1cccc2cccc(Nc3ccccc3)c12,IC50,Genome polyprotein,> 100 µM (active)
O=C1NN(c2ccc(Cl)c(Cl)c2)C(=O)/C1=C/c1ccc(-c2ccccc2C(=O)O)o1,AC50,[4],0.26 µM (active)
same,EC50,[2],> 160 µM (inactive)
same,IC50,Genome polyprotein,7.41 µM (active)
O=C(CN1C(=O)/C(=C/c2ccccc2)SC1=S)NNC(=O)c1ccccc1O,EC50,[2],> 160 µM (inconclusive)
same,EC50,[3],> 38 µM (not active)
CCn1c(SCC(=O)N2CCN(S(=O)(=O)c3ccccc3)CC2)nnc1-c1cccs1,AC50,Cytochrome P450 2C19,22.4 µM (inconclusive)
same,AC50,Cytochrome P450 2D6,17.8 µM (inconclusive)
CCc1ccc(C2C(C#N)=C(N)Oc3[nH]nc(CC(=O)OC)c32)cc1 (configuration not stated),EC50,Protein RecA,8.36 µM (active)
same,AC50,[1],13.8 µM (active)
O[C@@H](C1=C/C(=C\c2ccncc2)c2ccccc21)c1ccncc1,AC50,Cytochrome P450 2D6,1.58 µM (inconclusive)
Cc1cccc(N2CC(C(=O)OCC(=O)c3ccc(OC(=O)c4cccs4)cc3)CC2=O)c1C (configuration not stated),EC50,Protein RecA,25 µM (active)
same,AC50,[1],97.7 µM (active)
CN(Cc1ccccc1)C(=O)c1nc2ccccn2c1CN1CCCC1c1nccs1 (configuration not stated),AC50,INS1,> 260 µM (inactive)
COc1cc(C(c2c(C)[nH][nH]c2=O)c2c(C)[nH][nH]c2=O)cc([N+](=O)[O-])c1O,EC50,Protein RecA,0.248 µM (active)
same,AC50,[1],0.42 µM (active)
same,EC50,[5],7.63 µM (active)
same,EC50,[6],4.74 µM (active)
N=c1c(S(=O)(=O)c2ccc(Br)cc2)cc2c(=O)n3ccccc3nc2n1C1CCCCC1,EC50,[5],9.42 µM (inconclusive)
same,EC50,[6],8.8 µM (active)
O=C(c1ccco1)N1CCN(c2ncnc3c(-c4ccccc4)nsc23)CC1,EC50,[2],108 µM (active)
same,EC50,[3],9.83 µM (active)
CCOC(=O)c1nc(C)n(-c2ccc(Cl)cc2)n1,EC50,Protein RecA,> 380 µM (inactive)
same,AC50,[1],> 380 µM (inactive)
CCOC(=O)C1CCN(C(=O)CCC(=O)NNc2nc3ccccc3c3nc(C)nn23)CC1,EC50,[5],53.9 µM (active)
same,EC50,[6],1.41 µM (active)
COc1ccc(N2C(=O)CC(N(CCc3ccccc3)C(=O)/C=C/C(=O)O)C2=O)cc1 (configuration not stated),EC50,Protein RecA,> 380 µM (inactive)
same,AC50,[1],> 380 µM (inactive)
COC(=O)N/N=C/c1ccc(-c2cc(Cl)cc(Cl)c2)o1,EC50,[2],> 150 µM (inactive)
same,EC50,[3],5.04 µM (active)
same,CC50,[7],> 50 µM (active)
O=C(NCc1ccccc1Cl)c1ccc2c(=O)n(CCCN3CCCC3=O)c(=S)[nH]c2c1,AC50,Cytochrome P450 3A4,15.8 µM (inconclusive)
same,AC50,Cytochrome P450 2D6,22.4 µM (inconclusive)
CCn1c2ccccc2c2cc(/N=C3/SC(CC(=O)Nc4ccccc4)C(=O)N3C)ccc21 (configuration not stated),AC50,Cytochrome P450 1A2,3.16 µM (inconclusive)
same,AC50,Cytochrome P450 2D6,7.08 µM (inconclusive)
COc1ccc(/C=N/NC(=O)c2ccc(N(C)S(=O)(=O)c3ccccc3)cc2)cc1,EC50,[5],> 300 µM (not active)
same,EC50,[6],> 300 µM (not active)
Cc1noc(C)c1C(=O)OCC(=O)NC(c1ccccc1)c1ccccc1,AC50,Cytochrome P450 2D6,3.16 µM (inconclusive)
CC1(C)CC(=O)C2=C(C1)OC(N)=C(C#N)C2c1cccc(OC(=O)c2ccco2)c1 (configuration not stated),EC50,[5],> 300 µM (not active)
same,EC50,[6],> 300 µM (not active)
CC1=NN(c2ccc(Cl)cc2)C(=O)C1,EC50,Protein RecA,2.67 µM (active)
same,AC50,[1],2.74 µM (active)
CCOC(=O)c1ccc(NC(=O)NCc2cccnc2)cc1,AC50,INS1,2.09 µM (active)
